Source: patent publication US20240174647A1 (NEURON23, INC., priority 2022, published 2024)

Target: wt human LRRK2, catalytic site (Homo sapiens (Human), UniProt Q5S007)
Experiment: TR-FRET LanthaScreen Tb Kinase Activity Assay (LRRK2 kinase inhibition)
Format: biochemical
Details: 2 nM wt human LRRK2, 400 nM fluorescein-ERM (LRRKtide) peptide, 38 μM ATP, 120 minutes at room temperature
Procedure, shortened: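 LanthaScreen TR-FRET with 2 nM wt human LRRK2 catalytic site, 400 nM fluorescein-ERM (LRRKtide) peptide and 38 µM ATP in Kinase Buffer A; 120 min at room temperature. Phosphorylation detected with EDTA and Tb-anti-pLRRKtide after 60 min; IC50 from emission ratios.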

Chain of wt human LRRK2, catalytic site (Q5S007 1879-2138): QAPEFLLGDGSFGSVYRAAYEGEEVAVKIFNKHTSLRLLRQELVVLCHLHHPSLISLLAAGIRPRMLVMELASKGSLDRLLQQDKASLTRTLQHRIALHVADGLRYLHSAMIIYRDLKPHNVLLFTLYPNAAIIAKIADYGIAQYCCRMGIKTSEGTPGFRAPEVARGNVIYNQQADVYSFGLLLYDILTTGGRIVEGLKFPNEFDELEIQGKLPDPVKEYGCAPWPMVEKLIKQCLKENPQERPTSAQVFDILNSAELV

SMILES	IC50 [nM]
CNc1nc(Nc2cc(C)cc3c2cnn3C)ncc1C(F)(F)F [Example 45, N2-(1,6-dimethyl-1H-indazol-4-yl)-N4-methyl-5-(trifluoromethyl)pyrimidine-2,4-diamine]	< 50
CS(=O)(=O)CCn1ncc2c(Nc3ncc(C(F)(F)F)c(NC4CC4)n3)cccc21 [Example 139, N^4-cyclopropyl-N^2-(1-(2-(methylsulfonyl)ethyl)-1H-indazol-4-yl)-5-(trifluoromethyl)pyrimidine-2,4-diamine]	< 50
CCNc1nc(Nc2cccc3c2cnn3CC(C)(C)O)ncc1C(F)(F)F [Example 164, 1-[4-[[4-(ethylamino)-5-(trifluoromethyl)pyrimidin-2-yl]amino]indazol-1-yl]-2-methyl-propan-2-ol]	< 50
CNc1nc(Nc2ccc(C3CCN(C)CC3)c3c2cnn3CC#N)ncc1C(F)(F)F [Example 109, 2-(4-((4-(methylamino)-5-(trifluoromethyl)pyrimidin-2-yl)amino)-7-(1-methylpiperidin-4-yl)-1H-indazol-1-yl)acetonitrile]	< 50
CNc1nc(Nc2cccc3c2cnn3C)ncc1C(F)(F)F [Example 29, N4-methyl-N2-(1-methyl-1H-indazol-4-yl)-5-(trifluoromethyl)pyrimidine-2,4-diamine]	< 50
CNc1nc(Nc2ccc(OC)c3[nH]ncc23)ncc1C(F)(F)F [Example 28, N2-(7-methoxy-1H-indazol-4-yl)-N4-methyl-5-(trifluoromethyl)pyrimidine-2,4-diamine]	< 50
CC(C)(C#N)Cn1ncc2c(Nc3ncc(C(F)(F)F)c(NC4CC4)n3)cccc21 [Example 200, 3-[4-[[4-(cyclopropylamino)-5-(trifluoromethyl)pyrimidin-2-yl]amino]indazol-1-yl]-2,2-dimethyl-propanenitrile]	< 50
COCCNc1nc(Nc2cccc3c2cnn3C(C)(C)C#N)ncc1C(F)(F)F [Example 155, 2-[4-[[4-(2-methoxyethylamino)-5-(trifluoromethyl)pyrimidin-2-yl]amino]indazol-1-yl]-2-methyl-propanenitrile]	< 50
CN(C)c1nc(Nc2cccc3c2cnn3CC#N)ncc1C(F)(F)F [Example 107, 2-(4-((4-(dimethylamino)-5-(trifluoromethyl)pyrimidin-2-yl)amino)-1H-indazol-1-yl)acetonitrile]	< 50
CNc1nc(Nc2cnn3ccccc23)ncc1C(F)(F)F [Example 61, N4-methyl-N2-(pyrazolo[1,5-a]pyridin-3-yl)-5-(trifluoromethyl)pyrimidine-2,4-diamine]	< 50
CCn1ncc2c(Nc3ncc(C(F)(F)F)c(NC4CC4)n3)cccc21 [Example 99, N4-cyclopropyl-N2-(1-ethyl-1H-indazol-4-yl)-5-(trifluoromethyl)pyrimidine-2,4-diamine]	< 50
CNc1nc(Nc2cccc3c2cnn3CC(C)(C)O)ncc1C(F)(F)F [Example 97, 2-methyl-1-(4-((4-(methylamino)-5-(trifluoromethyl)pyrimidin-2-yl)amino)-1H-indazol-1-yl)propan-2-ol]	< 50
CNc1nc(Nc2cccc3c2cnn3C(C)(C)C#N)nc2[nH]cnc12 [Example 202, 2-methyl-2-[4-[[6-(methylamino)-9H-purin-2-yl]amino]indazol-1-yl]propanenitrile]	< 50
CNc1nc(Nc2ccc(C(C)CC(=O)N3CCOCC3)c3c2cnn3C)ncc1C(F)(F)F (stereo not shown) [Example 60, 3-(1-methyl-4-((4-(methylamino)-5-(trifluoromethyl)pyrimidin-2-yl)amino)-1H-indazol-7-yl)-1-morpholinobutan-1-one]	< 50
CNc1nc(Nc2c(C)ccc3nn(C)cc23)ncc1C(F)(F)F [Example 39, N2-(2,5-dimethyl-2H-indazol-4-yl)-N4-methyl-5-(trifluoromethyl)pyrimidine-2,4-diamine]	≥ 200
CCc1cc2cn[nH]c2cc1Nc1ncc(C(F)(F)F)c(NC)n1 [Example 122, N2-(5-ethyl-1H-indazol-6-yl)-N4-methyl-5-(trifluoromethyl)pyrimidine-2,4-diamine]	50 to 200
CNc1nc(Nc2c(OC)ccc3c2cnn3C)ncc1C(F)(F)F [Example 37, N2-(5-methoxy-1-methyl-1H-indazol-4-yl)-N4-methyl-5-(trifluoromethyl) pyrimidine-2,4-diamine]	< 50
CCOc1nc(Nc2cccc3c2cnn3C(C)(C)C#N)nc2[nH]cc(Cl)c12 [Example 162, 2-[4-[(5-chloro-4-ethoxy-7H-pyrrolo[2,3-d]pyrimidin-2-yl)amino]indazol-1-yl]-2-methyl-propanenitrile]	< 50
N#CCn1ncc2c(Nc3ncc(C(F)(F)F)c(NC4CC4)n3)cccc21 [Example 93]	< 50
CNc1nc(Nc2ccc(Cl)c3c2cnn3CC#N)ncc1C(F)(F)F [Example 111, 2-(7-chloro-4-((4-(methylamino)-5-(trifluoromethyl)pyrimidin-2-yl)amino)-1H-indazol-1-yl)acetonitrile]	< 50

SMILES	IC50 [nM]
CCNc1nc(Nc2cccc3c2cnn3C)ncc1C(F)(F)F [Example 69, N4-ethyl-N2-(1-methyl-1H-indazol-4-yl)-5-(trifluoromethyl)pyrimidine-2,4-diamine]	< 50
CNc1nc(Nc2cn(C)c3ncncc23)ncc1C(F)(F)F [Example 125, 4-methyl-N2(7-methylpyrrolo[2,3-d]pyrimidin-5-yl)-5-(trifluoromethyl) pyrimidine-2,4-diamine]	< 50
CNc1nc(Nc2cccc3cn[nH]c23)ncc1C(F)(F)F [Example 75, N2-(1H-indazol-7-yl)-N4-methyl-5-(trifluoromethyl)pyrimidine-2,4-diamine]	50 to 200
CNc1nc(Nc2ccc3c(C(=O)N4CCOCC4)n[nH]c3c2)ncc1C(F)(F)F [Example 9, (6-((4-(methylamino)-5-(trifluoromethyl)pyrimidin-2-yl)amino)-1H-indazol-3-yl)(morpholino)methanone]	< 50
CNc1nc(Nc2c(C)ccc3[nH]ncc23)ncc1C(F)(F)F [Example 23, N4-methyl-N2-(5-methyl-1H-indazol-4-yl)-5-(trifluoromethyl)pyrimidine-2,4-diamine]	50 to 200
CNc1nc(Nc2cc(C(C)C)cc3c2cnn3C)ncc1C(F)(F)F [Example 43, N2-(6-isopropyl-1-methyl-1H-indazol-4-yl)-N4-methyl-5-(trifluoromethyl) pyrimidine-2,4-diamine]	< 50
CNc1nc(Nc2c(C)nn3ccccc23)ncc1C(F)(F)F [Example 62, N4-methyl-N2-(2-methylpyrazolo[1,5-a]pyridin-3-yl)-5-(trifluoromethyl) pyrimidine-2,4-diamine]	50 to 200
CNc1nc(Nc2ccc3c(C#N)nn(C)c3c2)ncc1C(F)(F)F [Example 11, 1-methyl-6-((4-(methylamino)-5-(trifluoromethyl)pyrimidin-2-yl)amino)-1H-indazole-3-carbonitrile]	< 50
CS(=O)(=O)CCn1ncc2c(Nc3ncc(C(F)(F)F)c(NC4CC4)n3)ccc(F)c21 [Example 177, N^4-cyclopropyl-N^2-[7-fluoro-1-(2-methylsulfonylethyl)indazol-4-yl]-5-(trifluoromethyl)pyrimidine-2,4-diamine]	< 50
CNc1nc(Nc2cccc3c2cnn3CC(C)(C)O)nc2[nH]nc(Cl)c12 [Example 183, 1-[4-[[3-chloro-4-(methylamino)-1H-pyrazolo [3,4-d]pyrimidin-6-yl]amino]indazol-1-yl]-2-methyl-propan-2-ol]	< 50
CNc1nc(Nc2ccc(OC)c3c2cnn3C)ncc1C(F)(F)F [Example 47, N2-(7-methoxy-1-methyl-1H-indazol-4-yl)-N4-methyl-5-(trifluoromethyl) pyrimidine-2,4-diamine]	< 50
CNc1cc(Nc2nn(C)c3ncncc23)ncc1C(F)(F)F [Example 128, N^4-methyl-N^2-(1-methyl-1H-pyrazolo[3,4-d]pyrimidin-3-yl)-5-(trifluoromethyl)pyridine-2,4-diamine]	50 to 200
CNc1nc(Nc2cccc3c2cnn3CC#N)ncc1C(F)(F)F [Example 30, 2-(4-((4-(methylamino)-5-(trifluoromethyl)pyrimidin-2-yl)amino)-1H-indazol-1-yl)acetonitrile]	< 50
CNc1nc(Nc2cc(/C=C/C(=O)N3CCOCC3)cc3[nH]ncc23)ncc1C(F)(F)F [Example 52]	< 50
N#CCn1ncc2c(Nc3ncc(C(F)(F)F)c(NCC4CC4)n3)cccc21 [Example 104, 2-(4-((4-((cyclopropylmethyl)amino)-5-(trifluoromethyl)pyrimidin-2-yl)amino)-1H-indazol-1-yl)acetonitrile]	< 50
CC(C)(C#N)n1ncc2c(Nc3ncc(C(F)(F)F)c(NC4CC4)n3)cccc21 [Example 103, 2-(4-((4-(cyclopropylamino)-5-(trifluoromethyl)pyrimidin-2-yl)amino)-1H-indazol-1-yl)-2-methylpropanenitrile]	< 50
CNc1nc(Nc2cccc3c2cnn3C(=O)N2CCOCC2)ncc1C(F)(F)F [Example 32, (4-((4-(methylamino)-5-(trifluoromethyl)pyrimidin-2-yl)amino)-1H-indazol-1-yl)(morpholino)methanone]	< 50
CNc1nc(Nc2cc3c(cnn3C)cc2C)ncc1C(F)(F)F [Example 13, N2-(1,5-dimethyl-1H-indazol-6-yl)-N4-methyl-5-(trifluoromethyl)pyrimidine-2,4-diamine]	< 50
CNc1nc(Nc2cnn3ccc(C#N)cc23)ncc1C(F)(F)F [Example 118, 3-[[4-(methylamino)-5-(trifluoromethyl)pyrimidin-2-yl]amino]pyrazolo[1,5-a]pyridine-5-carbonitrile]	< 50
CS(=O)(=O)CCn1ncc2c(Nc3ncc(C(F)F)c(NC4CC4)n3)cccc21 [Example 192, N^4-cyclopropyl-5-(difluoromethyl)-N^2-[1-(2-methylsulfonylethyl)indazol-4-yl]pyrimidine-2,4-diamine]	< 50
